One data set concerns the target aurora B (Homo sapiens, UniProt Q96GD4). Briefly: radioisotope-based P81 filter-binding assay, aurora B kinase. It counts as biochemical. Conditions: for inhibition at 1 µM: compound at 1.0 μM, mean values (n=2), read-out: percent inhibition of enzyme catalytic activity, Aur B (numbers in parentheses); for IC50: read-out: Enzyme assay IC50 Aur B. How it is done: (§1) Compounds of formula (I)-(IV) were evaluated for abilities in inhibiting protein kinases aurora B and FLT-3 activity using radioisotope-based P81 filter-binding assay (Table 1).

The target in the next data set is T1, FLT-3 (Homo sapiens, UniProt P36888).
T1 sequence (P36888 27-993): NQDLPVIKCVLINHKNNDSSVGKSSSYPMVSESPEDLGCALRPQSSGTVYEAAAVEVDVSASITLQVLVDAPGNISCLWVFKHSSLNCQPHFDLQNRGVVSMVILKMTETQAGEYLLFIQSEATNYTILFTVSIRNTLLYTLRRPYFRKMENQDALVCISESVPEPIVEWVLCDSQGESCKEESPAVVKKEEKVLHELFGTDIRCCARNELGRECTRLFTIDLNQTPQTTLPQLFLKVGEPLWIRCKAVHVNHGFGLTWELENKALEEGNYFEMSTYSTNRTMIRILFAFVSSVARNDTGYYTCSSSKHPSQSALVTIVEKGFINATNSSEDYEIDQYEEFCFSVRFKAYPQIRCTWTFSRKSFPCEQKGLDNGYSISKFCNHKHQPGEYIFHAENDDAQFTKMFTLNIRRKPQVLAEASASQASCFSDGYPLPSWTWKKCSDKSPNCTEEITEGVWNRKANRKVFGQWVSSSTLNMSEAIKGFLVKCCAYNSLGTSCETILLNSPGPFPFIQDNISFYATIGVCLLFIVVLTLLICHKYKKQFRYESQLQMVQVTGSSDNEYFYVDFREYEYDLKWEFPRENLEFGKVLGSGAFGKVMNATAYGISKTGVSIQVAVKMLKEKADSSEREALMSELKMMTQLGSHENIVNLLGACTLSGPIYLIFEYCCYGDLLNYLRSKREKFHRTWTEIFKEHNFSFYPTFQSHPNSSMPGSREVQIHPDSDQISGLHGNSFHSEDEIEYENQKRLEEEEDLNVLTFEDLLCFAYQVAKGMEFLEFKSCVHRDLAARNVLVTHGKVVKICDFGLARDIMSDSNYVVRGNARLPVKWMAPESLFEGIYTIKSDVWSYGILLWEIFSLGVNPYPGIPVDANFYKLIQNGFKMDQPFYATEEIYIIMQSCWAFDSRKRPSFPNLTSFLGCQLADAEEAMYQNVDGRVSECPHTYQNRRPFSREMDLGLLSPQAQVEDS
Briefly: radioisotope-based P81 filter-binding assay, FLT-3 kinase. In kind it is biochemical. The conditions noted are these: for inhibition at 1 µM: compound at 1.0 μM, mean values (n=2), read-out: percent inhibition of enzyme catalytic activity, FLT-3 (numbers in parentheses); for IC50: averaged from two independent dose-response curves, read-out: Enzyme assay IC50 FLT-3. How it is done: as §1

[1] abbreviates: averaged from two independent dose-response curves.

The structures appear in SMILES notation. Read-outs that look alike come from different tables or passages of the source.

20 compounds from patent publication US8946282B2, “Indolin-2-one derivatives as protein kinase inhibitors” (Annji Pharmaceutical Co., Ltd., priority 2012, dated 2015) can be followed below.

Chain of aurora B (Q96GD4 whole entry): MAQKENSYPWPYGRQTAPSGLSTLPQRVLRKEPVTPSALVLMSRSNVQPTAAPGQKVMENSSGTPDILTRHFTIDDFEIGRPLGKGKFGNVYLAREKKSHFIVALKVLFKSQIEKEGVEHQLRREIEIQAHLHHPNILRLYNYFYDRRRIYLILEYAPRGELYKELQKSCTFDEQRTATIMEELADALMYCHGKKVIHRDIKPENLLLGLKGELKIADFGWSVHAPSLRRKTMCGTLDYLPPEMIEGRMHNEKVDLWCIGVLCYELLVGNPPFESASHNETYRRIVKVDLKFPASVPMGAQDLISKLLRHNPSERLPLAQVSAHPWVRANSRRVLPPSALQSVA

Turning to `Cc1[nH]c(/C=C2\C(=O)Nc3cc(NC(=O)NC(=O)c4ccc(Cl)c(C(F)(F)F)c4)ccc32)c(C)c1CCC(=O)O` (hydrate or solvate) [D37, (Z)-3-(5-((6-(3-(4-chloro-3-(trifluoromethyl)benzoyl)ureido)-2-oxo-indolin-3-ylidene)methyl)-2,4-dimethyl-1H-pyrrol-3-yl)propanoic acid], the melting point (usually the temperature of the solid-liquid transition) was 270 to 275 °C (dec.).
`COc1ccc(C(=O)NC(=O)Nc2ccc3c(c2)NC(=O)C3=Cc2ccco2)cc1` (stereo in doubt) [D23, (E)-N-(3-(furan-2-ylmethylene)-2-oxoindolin-6-ylcarbamoyl)-4-methoxybenzamide]: the melting point is 278 to 283 °C (dec.). In addition, on aurora B, the inhibition (usually the change of the read-out against control, counted positive when it falls) at 1 µM amounted to 44%. The inhibition at 1 µM at FLT-3 is 15.4%.
For `COc1ccc(C(=O)NC(=O)Nc2cccc3c2/C(=C/c2ccc[nH]2)C(=O)N3)cc1` [D13, (Z)—N-(3-((1H-pyrrol-2-yl)methylene)-2-oxoindolin-4-ylcarbamoyl)-4-methoxybenzamide], the inhibition at 1 µM on aurora B is 11.2%. Further, on FLT-3, the IC50 (as a rule, the point on the concentration scale where inhibition reaches its midpoint) stood at 58.2 nM.
As for `COc1ccc(C(=O)NC(=O)Nc2ccc3c(c2)NC(=O)/C3=C/c2ccccc2)cc1` [D17, (E)-N-(3-benzylidene-2-oxoindolin-6-ylcarbamoyl)-4-methoxybenzamide], the melting point is 277 to 282 °C (dec.). For the same compound, the inhibition at 1 µM at aurora B is 61.2%. Moreover, at FLT-3, the inhibition at 1 µM was determined as 34.4%.
`COc1ccc(C(=O)NC(=O)Nc2ccc3c(c2)NC(=O)/C3=C/c2ccc(Cl)cc2)cc1` [D18, (E)-N-(3-(4-chlorobenzylidene)-2-oxoindolin-6-ylcarbamoyl)-4-methoxybenz-amide]: the melting point is 278 to 283 °C (dec.). Besides, the inhibition at 1 µM at aurora B amounted to 12.8%. Also, at FLT-3, the inhibition at 1 µM was found to be 6.1%.
With `COc1ccc(/C=C2/C(=O)Nc3cc(NC(=O)NC(=O)c4ccc(OC)cc4)ccc32)cc1` [D19, (E)-4-methoxy-N-(3-(4-methoxybenzylidene)-2-oxoindolin-6-yl-carbamoyl)benzamide], the melting point is 274 to 279 °C (dec.). The inhibition at 1 µM at aurora B stood at 55.9%. Moreover, the inhibition at 1 µM at FLT-3 was 43.2%.
Consider `COc1ccc(C(=O)NC(=O)Nc2ccc3c(c2)NC(=O)/C3=C\c2ccccn2)cc1` [D20, (Z)-4-methoxy-N-(2-oxo-3-(pyridin-2-ylmethylene)indolin-6-ylcarbamoyl)benzamide], for which the melting point was 268 to 273 °C (dec.). For the same compound, the inhibition at 1 µM on aurora B worked out at 28.7%. The IC50 on FLT-3 is above 1000 nM.
Turning to `COc1ccc(C(=O)NC(=O)Nc2ccc3c(c2)NC(=O)/C3=C\c2[nH]c(C)c(CCC(=O)O)c2C)cc1` [D47, (Z)-3-(5-((6-(3-(4-methoxybenzoyl)ureido)-2-oxoindolin-3-ylidene)methyl)-2,4-dimethyl-1H-pyrrol-3-yl)propanoic acid], the IC50 is 1.2 nM at aurora B (setting [1]) and 2.7 nM at FLT-3.
In the case of `COc1ccc(C(=O)NC(=O)Nc2cc3c(cc2F)/C(=C/c2[nH]c(C)c(C(=O)O)c2C)C(=O)N3)cc1` [D49], the IC50 came out at 1.5 nM at aurora B (setting [1]) and 909 nM at FLT-3.
With `COc1ccc(C(=O)NC(=O)Nc2cc3c(cc2F)/C(=C/c2[nH]c(C)c(CCC(=O)O)c2C)C(=O)N3)cc1` [D51, (Z)-3-(5-((5-fluoro-6-(3-(4-methoxybenzoyl)ureido)-2-oxoindolin-3-ylidene)-methyl)-2,4-dimethyl-1H-pyrrol-3-yl)propanoic acid], the 50% inhibitory concentration (IC50) at aurora B is 3 nM.
For the compound `COc1ccc(C(=O)NC(=O)Nc2ccc3c(c2)NC(=O)/C3=C\c2[nH]c(C)c(CCC(=O)O)c2C)c(F)c1` [D58, (Z)-3-(5-((6-(3-(2-fluoro-4-methoxybenzoyl)uriedo)-2-oxoindolin-3-ylidene)methyl)-2,4-dimethyl-1H-pyrrol-3-yl)propanoic acid], the IC50 was found to be 1.3 nM on aurora B (setting [1]) and 10 nM on FLT-3.
For `COc1ccc(C(=O)NC(=O)Nc2cc3c(cc2F)/C(=C/c2[nH]c(C)c(C(=O)O)c2C)C(=O)N3)c(F)c1` [D59, (Z)-5-((5-fluoro-6-(3-(2-fluoro-4-methoxybenzoyl)ureido)-2-oxoindolin-3-ylidene)methyl)-2,4-dimethyl-1H-pyrrole-3-carboxylic acid], in that order: 3 nM and 406 nM.
In the case of `CCOC(=O)CCc1c(C)[nH]c(/C=C2\C(=O)Nc3cc(NC(=O)NC(=O)c4ccc(OC)cc4F)ccc32)c1C` [D63, (Z)-ethyl-3-(5-((6-(3-(2-fluoro-4-methoxybenzoyl)ureido)-2-oxoindolin-3-ylidene)methyl)-2,4-dimethyl-1H-pyrrol-3-yl)propanoate], the IC50 came to 218 nM at aurora B (setting [1]) and 3840 nM at FLT-3.
On to `COc1ccc(NC(=O)CC(=O)Nc2ccc3c(c2)NC(=O)/C3=C\c2ccc[nH]2)cc1` [D76, (Z)—N^1-(3-((1H-pyrrol-2-yl)methylene)-2-oxoindolin-6-yl)-N^3-(4-methoxyphenyl)malonamide], for which, on aurora B (setting [1]), the IC50 is 29.6 nM.
With `O=C1Nc2cc(NC(=O)N3CCN(c4ccccc4F)C3=O)ccc2/C1=C/c1ccc[nH]1` [D90, (Z)—N-(3-((1H-pyrrol-2-yl)methylene)-2-oxoindolin-6-yl)-3-(2-fluorophenyl)-2-oxoimidazolidine-1-carboxamide], the values for the IC50 on aurora B (setting [1]) and on FLT-3 were 1.8 nM and above 10000 nM, respectively.
In the case of `COc1ccc(N2CCN(C(=O)Nc3ccc4c(c3)NC(=O)/C4=C\c3ccc[nH]3)C2=O)c(F)c1` [D94, (Z)—N-(3-((1H-pyrrol-2-yl)methylene)-2-oxoindolin-6-yl)-3-(2-fluoro-4-methoxyphenyl)-2-oxoimidazolidine-1-carboxamide], the IC50 on aurora B (setting [1]) is 4.4 nM; on FLT-3, above 10000 nM.
With `Cc1[nH]c(/C=C2\C(=O)Nc3cc(NC(=O)N4CCN(C5CC5)C4=O)ccc32)c(C)c1CCC(=O)O` [D98, (Z)-3-(5-((6-(3-cyclopropyl-2-oxoimidazolidine-1-carboxamido)-2-oxoindolin-3-ylidene)methyl)-2,4-dimethyl-1H-pyrrol-3-yl)propanoic acid], the values for the IC50 on aurora B (setting [1]) and on FLT-3 were 3.2 nM and 119 nM, respectively.
In the same order, the values of `Cc1[nH]c(/C=C2\C(=O)Nc3cc(NC(=O)c4c[nH]cc(-c5ccc(F)cc5F)c4=O)ccc32)c(C)c1CCC(=O)O` [D147, (Z)-3-(5-((6-(5-(2,4-difluorophenyl)-4-oxo-1,4-dihydropyridine-3-carboxamido)-2-oxoindolin-3-ylidene)methyl)-2,4-dimethyl-1H-pyrrol-3-yl)propanoic acid] are 6.2 nM and 2.9 nM.
In the same order, the values of `Cc1[nH]c(/C=C2\C(=O)Nc3cc(NC(=O)c4c[nH]cc(-c5ccc(F)cc5)c4=O)ccc32)c(C)c1C(=O)N1CCOCC1` [D152, (Z)—N-(3-((3,5-dimethyl-4-(morpholine-4-carbonyl)-1H-pyrrol-2-yl)methylene)-2-oxoindolin-6-yl)-5-(4-fluorophenyl)-4-oxo-1,4-dihydropyridine-3-carboxamide] are 2.9 nM and 753 nM.
In the same order, the values of `Cc1[nH]c(/C=C2\C(=O)Nc3cc(NC(=O)c4c[nH]cc(-c5ccc(F)cc5)c4=O)ccc32)c(C)c1CC(=O)N1CCOCC1` [D153, (Z)—N-(3-((3,5-dimethyl-4-(2-morpholino-2-oxoethyl)-1H-pyrrol-2-yl)methylene)-2-oxoindolin-6-yl)-5-(4-fluorophenyl)-4-oxo-1,4-dihydropyridine-3-carboxamide] are 73.9 nM and 2.7 nM.
